Experimental data from patent US20150057316A1, “NOVEL SULFONATE-BASED TRIMEBUTINE SALTS” (GICARE PHARMA INC., priority 2012, published 2015).

What was measured:
[1] = tested on: male Sprague-Dawley rats; test: preliminary toxicological evaluation following p.o. administration in rats; format: in vivo
Description: A preliminary toxicological evaluation of the compound was done in 250-300 g male Sprague-Dawley rats. Animals were randomized into one of three dosing group, i.e. 250, 500 or 1,000 mg/kg administered by oral gavage. Following administration of the test article, animals were observed hourly for the first 8 hr post-dosing for clinical signs and twice daily thereafter until termination on Day 7. Three animals per group were sacrificed by exsanguination under general anesthesia at 24-hr post dosing or on Day 7 and a gross necropsy was performed in all animals. Additionally, all three rats having received the 500 mg/kg dose and scheduled for sacrifice on Day 7 were placed in individual metabolic cages immediately following test article administration, in order to collect feces and urine during 48 hr. Blood samples were collected terminally from each rat for hematology and serum chemistry evaluation.

[2] = tested on: colorectal distension induced pain; test: electromyographic colorectal distension (CRD) induced pain model; format: in vivo, mice; details: for VMR response to colorectal distension compared to the control group: mice, 30 and 60 mg/kg oral
From the text: The purpose was to evaluate the antinociceptive effects of Example 20 in an electromyographic colorectal distension (CRD) induced pain model. This model is recognized by experts in the field to be less subjective than the rat Abdominal Withdrawal Response (AWR) colorectal distension model, and has been used to assess the analgesic and sedative properties of several new compounds, including IBS drugs Zhuo, M; Gebhart, G. F. Facilitation and attenuation of a visceral nociceptive reflex from the rostroventral medulla in the rat. Gastroenterology, 2002, 122 1007-1019; Larsson, M. H.; Rapp, L.; Lindström, E. Effect of DSS-induced colitis on visceral sensitivity to colorectal distension in mice. Neurogastroenterology & Motility, 2006, 18, 144-152; Arvidsson, S.; Larsson, M.; Larsson, H.; Lindström, E.; Martinez, V. J. Pain, 2006, 7, 108-118; Jones, R. C. W.; Gebhart, G. F. Models of Visceral Pain: Colorectal Distension (CRD). Currrent Protocols in Pharmacology, 2004, 5.36, DOI: 10.1002/0471141755.ph0536s25.]
Three groups of 10 male mice (C57Bl6) were used: 2 groups received treatments with […] and one group received their vehicle […].
The groups were divided as follows: • i. 2 groups of 10 mice received an oral administration of Example 20 at two doses, 30 and 60 mg/kg. • ii. 1 group of 10 mice received an oral administration of the vehicle (PEG 200) use to administer Example 20.
All groups were implanted with electrodes in the abdominal external oblique musculature under anaesthesia. The surgery for electrode implantation was performed 5 days before the day of the experiment. The day of the experiment, colorectal distension (CRD) was performed in all animals, by inserting a balloon (10-mm long) into the colon, at 5 mm from the anus. The balloon was inflated with warm water, in a stepwise manner, from 0 to 60 mm Hg, with 15 mm Hg increments. […] At various times after these treatments: 2, 4 and 6-hours, the same series of stepwise CRD were performed and electromyographic responses (VMR in millivolts/sec) were recorded.

[3] = tested on: Beagle dogs; test: i.v./p.o. cross over study in dogs, toxicological assessment; format: in vivo; details: 2 mg/kg i.v. or 10 mg/kg p.o.
Description: Trimebutine 3-thiocarbamoyl-benzenesulfonate was administered as a cross over design once, each dosing separated by at least a 7-day washout period. During this study, assessments included mortality checks, clinical observations, and body weights. Feces and urine samples were collected up to 48 hr post-administration. Blood samples were also collected for pharmacokinetic evaluations on Days 1 and 8 at 10 time points. Pharmacokinetic data are presented in the two following Figures.

[4] = accelerated stability protocol; format: physicochemical; details: Polymorph B, 40±2° C., 75±5% RH, six months
Description: The long-term stability of Example 20 was assessed using an accelerated stability protocol. For this purpose, samples of Example 20—Polymorph B was placed in borosilicate vials polyethylene plastic bags, sealed in an aluminum bag, and placed in a fiber drum with desiccant. The samples where then subjected to 40±2° C. with 75±5% relative humidity (RH), and stability was monitored at time 0, 1, 2, 3 and 6 months using a standardized HPLC method.

[5] = tested on: Sprague-Dawley rats; test: single dose acute and 7-day range-finding oral toxicity study in rats; format: in vivo
Description: Consequently, a single dose acute and 7-day range-finding oral toxicity study in Sprague-Dawley rats was conducted. During the single dose acute phase of the study, the test article was administered as a single dose by oral gavage to groups of 3 male and 3 female Sprague-Dawley rats, each group receiving a higher or lower dose level, based on the reaction of the previous group during the first day of the observation period.
Upon completion of the 7-day treatment period, all animals were euthanized and subjected to a gross necropsy examination (Day 8 study). Clinical signs (ill health, behavioral changes, etc.) were recorded on all surviving animals. Clinical pathology evaluations (hematology, clinical chemistry and coagulation parameters) were performed on all surviving animals (single dose acute & range-finding phases) prior to their scheduled necropsy. Blood samples were collected terminally from the abdominal aorta (while anesthetized with isoflurane).

[6] = tested on: male Balb/C mice; test: preliminary toxicological evaluation following i.p. administration in mice; format: in vivo; details: 50 mg/kg i.p.
Description: A preliminary toxicological evaluation of the compound was done in 6-8 week old male Balb/C mice. […] Following administration of the test article, animals were observed hr for the first 8 hr post-dosing for clinical signs and twice daily thereafter until termination on Day 7. Body weights were determined on Days 1, 2, 3 and 7. Three mice were sacrificed by exsanguination at 24 hr post dosing or on Day 7, and a gross necropsy was performed in all animals. Particular attention was paid to the abdominal, thoracic and cranial cavities for reporting of any unusual observations.

[7] = male rats, single oral dose 250, 500 or 1000 mg/kg

**Q.** What does the source list for `CCC(COC(=O)c1cc(OC)c(OC)c(OC)c1)(c1ccccc1)N(C)C.NC(=S)c1cccc(S(=O)(=O)O)c1` (stereo not shown) [Example 20]?
**A.** hematology parameters ([1]; male rats, single oral dose): No significant changes; serum biochemistry variations compared to control (e.g., amylase, creatinine) ([1]; male rats, single oral dose): minor, transient and remained within the normal range for the species; mortality or clinical signs [1, 7]: No mortality or clinical signs were observed; tolerability [1, 7]: well tolerated; necropsy findings ([1]; rats sacrificed on Day 7, 500 or 1000 mg/kg p.o.): pale and/or enlarged lungs in a few animals; antinociceptive effects on colorectal distension induced pain ([2]; VMR mouse model, overall conclusion): significant antinociceptive effects; VMR response to colorectal distension compared to the control group ([2]; after 2 and 4 hours): overall reduction of the VMR response; VMR response to colorectal distension compared to the control group ([2]; at 6 hours, not statistically different from control): trend toward efficacy; bodyweight [3]: no change in bodyweight; death [3]: no death reported; toxicity [3]: no indication of any toxicity; HPLC purity after storage [4]: > 99.7%; degradation [4]: no degradation had been observed; dose well tolerated over 7 days without significant clinical signs of toxicity ([5]; male and female rats, once daily oral gavage, 7 days): 1,000 mg/kg; death and clinical signs of toxicity ([5]; male and female rats, single oral dose up to 2,000 mg/kg): no death and no significant clinical signs of toxicity; single dose well-tolerated ([5]; male and female rats, single oral gavage): up to 2,000 mg/kg; deaths during 7-day repeat dose regimen ([5]; rats, 2,000 mg/kg once daily p.o., deaths after 3 and 5 days): two animals from the 2,000 mg/kg dose group died; tolerability [6]: well-tolerated; macroscopic finding at gross necropsy ([6]; 24 hr or Day 7): no significant macroscopic finding; clinical signs ([6]; 7 days): no clinical signs were noted; mortality ([6]; 7 days): no mortality; body weights ([6]; Days 1, 2, 3 and 7): remained stable
